Reference: PMC3112094, “Pro-apoptotic activity of α-bisabolol in preclinical models of primary human acute leukemia cells” (Journal of Translational Medicine, 2011)

What was measured:
mammary tumor masses = tested on: mammary tumor masses; parameters: method as in PMID 20524399; conditions: HER-2 transgenic mice, 10 mg/mouse ref 2; cited from earlier work
[1] = tested on: permeabilized leukemic cells; assay: Oxygen consumption of permeabilized cells (oxygraph, Clark electrode); format: cell-based, human
Description: (§1) Leukemic cells and normal lymphocytes were centrifuged (10 minutes, 200 × g) and washed with ice cold buffer A (250 mM sucrose, 20 mM HEPES, 10 mM MgCl2 - pH 7.1). The pellet was resuspended in 2 mL of buffer A containing 80 μg of digitonin. After a 1-minute incubation on ice, 8 mL of buffer A were added and cells were centrifuged (3 minutes, 400 × g). The pellet was resuspended in 100 μL buffer A containing 1 mM ADP, 2 mM […] (respiration buffer) and immediately used for the polarographic assay. Cell number and permeabilization was measured by the trypan blue exclusion method. Permeabilized leukemic cells and lymphocytes were assayed for oxygen consumption at 30°C using a thermostatically controlled oxygraph and Clark electrode. Cells were incubated for 10 minutes in respiration buffer at 30°C in the presence or absence of 3 μM α-bisabolol. Mitochondrial respiration (state 3 respiration) was started by adding 5 mM glutamate plus malate (G/M) and 5 mM succinate plus glycerol-3-phosphate (S/[…]), which are complex I and […]/glycerol-3-phosphate dehydrogenase substrates, respectively. The maximal respiration rate (uncoupled respiration) was empirically determined by the addition of 200 nM carbonylcyanide-4- (trifluoromethoxy)-phenylhydrazone (FCCP).

healthy lymphocytes = assay: as above; format: cell-based, human; conditions: healthy lymphocytes of 6 donors, 3 μM α-bisabolol, 10 minutes, 30°C
Description: as §1

T lymphocytes = assay: Cytotoxicity in normal peripheral blood cells, TruCOUNT flow cytometry; format: cell-based, human
Description: Viable peripheral blood leukocytes and bone marrow cells from - 4 - control donors were treated and used as specified above for leukemic cells.
Cells derived from patients or normal donors were exposed for 24 hours to 20, 40, 80, and 160 μM α-bisabolol dissolved in ethanol (1:8 in order to minimize drug volumes), and when appropriate to 3 μM imatinib mesylate (Novartis, Basel, CH), representative of the in vivo active concentration. All cytotoxicity tests were performed in triplicate.
The absolute counts of normal leukocytes sub-populations were measured with TruCOUNT tubes (Becton Dickinson, San Jose, CA) by polychromatic flow cytometry according to the manufacturer's instructions with minor modifications. Peripheral blood and bone marrow cells were cultured with α-bisabolol for 24, 48, 72, 96 and 120 hours. At the end of the culture, 200 μL of sample, a mixture of antibodies (CD45 APC-H7, CD3 PE-Cy7, CD19 PE, CD14 APC for peripheral blood and CD45 APC-H7, CD34 PE, CD33 PE-Cy7 for bone marrow) and 7-amino-actinomycin D (all reagents from Becton Dickinson) for dead cells exclusion were added to the TruCOUNT tubes. After a 15-minute incubation at room temperature, 1 mL lysing reagent (Biosource, Nivelles, BE) was added for 10 minutes. A total of 40,000 beads were acquired on a FACSCanto cytometer (Becton Dickinson). […]

leukemic blasts = assay: PARP cleavage (Western blot) and DNA ladder; format: cell-based, human; conditions: blasts of case Ph^-B-ALL #01 after α-bisabolol exposure
Description: Cells were homogenized at 4°C in 50 mM Tris-HCl (pH 8) containing 0.1% Nonidet-P40 (NP-40), 200 mM KCl, 2 mM MgCl2, 50 μM ZnCl2, 2 mM DTT, and protease inhibitors [1 mM phenylmethylsulfonyl fluoride (PMSF), 1 mg/mL leupeptin, and 1 mg/mL antipain]. Aliquots of the homogenates (40 μg total protein/lane) were loaded on SDS-polyacrylamide gels at the appropriate concentrations. Electrophoresis was performed at 100 V with a running buffer containing 0.25 M Tris-HCl (pH 8.3), 1.92 M glycine, and 1% SDS. The resolved proteins were electroblotted onto a nitrocellulose membrane using the iBlot™ system (Invitrogen, Carlsbad, CA). Membranes were then incubated with a mouse monoclonal IgG antibody to poly(ADP-ribose) polymerase (PARP) (Zymed, South San Francisco, CA), with a rabbit polyclonal IgG antibody to BID (Cell Signaling Technology, Danvers, MA) or with a rabbit polyclonal IgG antibody to α-tubulin (Cell Signaling Technology). The membranes were then washed and incubated with an anti-mouse or anti-rabbit IgG peroxidase-conjugated antibody (Cell Signaling Technology). The blots were washed again and then incubated with enhanced chemiluminescent detection reagents (Immun-Star™ WesternC™ Kit, Bio-Rad, Hercules, CA) according to the manufacturer's instructions. Proteins were detected using the ChemiDoc XRS Imaging System (Bio-Rad). […]

SMILES: CC(C)=CCC[C@](C)(O)[C@@H]1CC=C(C)CC1 [α-bisabolol]
- effect on palpable mammary tumor masses (mammary tumor masses): decrease in the number of palpable mammary tumor masses
- oxygen consumption sustained by S/G3P oxidation ([1]; 3 μM α-bisabolol, 10 minutes, 30°C): not affected
- NADH-supported state 3 respiration (G/M) oxygen consumption ([1]; 3 μM α-bisabolol, 10 minutes, 30°C, 6 leukemias, untreated controls 280.7 ± 11.9): 140.0 ± 70.5 pmol O2/minute/10^6 cells
- stimulation of mitochondrial respiration by FCCP (uncoupled respiration) ([1]; 3 μM α-bisabolol-treated leukemic cells, 200 nM FCCP): not stimulated
- respiration in state 3 (G/M, S/G3P) and with FCCP (healthy lymphocytes): not statistically modified
- IC50 (T lymphocytes; Homo sapiens, T-lymphocyte, 24 h, normal peripheral blood T lymphocytes): 59 ± 7 µM
- sensitivity to α-bisabolol (T lymphocytes; T lymphocytes, 40 μM α-bisabolol over 120 hours): only marginally sensitive
- PARP cleavage and DNA laddering (leukemic blasts): underwent PARP cleavage and DNA laddering
